Data taken from US20240417410A1, “TRICYCLIC COMPOUNDS FOR THE TREATMENT OF CANCER” (Hoffmann-La Roche Inc., priority 2023, published 2024).
pIC50: −log10 of the molar value.

Tests used:
[1] = system: AGS cells (KRAS G12D); test: Cell viability assay (Cell Counting Kit-8, 3-day); format: cell-based, human; conditions: Homo sapiens, 72 h, 72 hrs incubation
Experimental: (§1) The purpose of this cellular assay was to determine the effects of test compounds on the proliferation of human cancer cell lines NCI-H358 (ATCC-CRL5807) cells, AGS (ATCC-CRL-1739) cells, SW620 (ATCC-CCL-227) over a 3-day treatment period by quantifying the amount of NADPH present at endpoint using Cell Counting Kit-8.
(§2) Cells were seeded at 5,000 cells/well (NCI-H358), 2,000 cells/well (AGS) 2,000 cells/well (SW620) in 96-well assay plates (Corning-3699) and incubated overnight. On the day of the assay, diluted compounds were then added in a final concentration of 0.5% DMSO. After 72 hrs incubation, a tenth of the volume of cell counting kit 8 (Dnjindo-CK04) was added into each well. Read the signal (OD450 minus OD650) using EnVision after 2 hrs incubation. IC50 was determined by fitting a 4-parameter sigmoidal concentration response model.

[2] = system: NCI-H358 cells (KRAS G12C); test: Cell viability assay (Cell Counting Kit-8, 3-day); format: cell-based, human; conditions: Homo sapiens, NCI-H358, 72 h, NCI-H358, 72 hrs incubation
Experimental: as §1, §2

[3] = system: SW620 cells (KRAS G12V); test: Cell viability assay (Cell Counting Kit-8, 3-day); format: cell-based, human; conditions: Homo sapiens, SW-620; SW620, 72 hrs incubation
Experimental: as §1, §2

[4] = system: phosphorylation of ERK, KRAS G12C in NCI-H358 cells; test: pERK inhibition assay; format: cell-based; conditions: Homo sapiens, NCI-H358, 4 h
Experimental: (§3) This assay is to measure the ability of test compounds in inhibiting the phosphorylation of ERK, the downstream signaling of KRAS G12C in NCI-H358 cells, KRAS G12D in AGS cells, and KRAS G12V in SW620. NCI-H358 (ATCC-CRL5807) cells, AGS (ATCC-CRL-1739) cells, SW620 (ATCC-CCL-227) cells were all grown and maintained using RPMI-1640 medium (Thermo Fisher Scientific) with 10% fetal bovine serum and 1% penicillin/streptomycin. On the day prior to compound addition, cells were plated in tissue culture-treated 96 well plates (Corning-3699) at a density of 30,000 cell/well, 20,000 cell/well, 30,000 cell/well for NCI-H358, AGS and SW620 respectively, and allowed for attachment overnight. Diluted compounds were then added in a final concentration of 0.5% DMSO. After 4 hours of incubation, the medium was removed, 100 μL of 4% formaldehyde was added, and the assay plates were incubated at room temperature for 20 minutes. The plates were then washed once with phosphate buffered saline (PBS), and permeabilized with 100 μL of chilled methanol for 10 minutes. Non-specific antibody binding to the plates was blocked using 50 μL 1X BSA blocking buffer (Thermo-37520, 10-fold dilution by Phosphate-Buffered Saline Tween (PBST) for at least 1 hour at room temperature.
(§4) The amount of phosphor-ERK was determined using an antibody specific for phosphorylated form of ERK. Primary antibody (PERK, CST-4370, Cell Signaling Technology) was diluted 1:300 in blocking buffer, with 50 μL aliquoted to each well, and incubated overnight at 4° C. Cells was washed five times for 5 minutes with PBST. Secondary antibody (HRP-linked anti-rabbit IgG, CST-7074, Cell Signaling Technology) was diluted 1:1000 in blocking buffer, and 50 μL was added to each well and incubated 1-2 hrs at room temperature. Cells was washed […] for 5 minutes with PBST, 100 μL TMB ELISA substrate (abcam-ab171523) were added and gently shake for 20 minutes. 50 μL stop solution (abcam-ab 171529) were added, and then read the signal (OD450) by EnVision.
(§5) IC50 was determined by fitting a 4-parameter sigmoidal concentration response model.

[5] = system: phosphorylation of ERK, KRAS G12D in AGS cells; test: pERK inhibition assay; format: cell-based; conditions: Homo sapiens, AGS, 4 h
Experimental: as §3, §4, §5

[6] = system: phosphorylation of ERK, KRAS G12V in SW620; test: pERK inhibition assay; format: cell-based; conditions: Homo sapiens, SW-620, 4 h, SW620 cells
Experimental: as §3, §4, §5

| pIC50 [1] | pIC50 [2] | pIC50 [3] | pIC50 [4] | pIC50 [5] | pIC50 [6] | Compound |
| --- | --- | --- | --- | --- | --- | --- |
| 7.56 | 8.27 | 8.82 | 8.96 | 8.21 | 8.89 | CO[C@@H](C)c1ncc(N2CCN(C)CC2)cc1-c1c2c3cc(cc4c3n1CCC4)-c1csc(n1)C[C@H](NC(=O)[C@H]1C[C@@H]1c1ccncc1)C(=O)N1CCC[C@H](N1)C(=O)OCC(C)(C)C2 [Example 57, (1S,2S)-N-[(7S,13S)-(20M)-20-[2-[(1S)-1-methoxyethyl]-5-(4-methylpiperazin-1-yl)-3-pyridyl]-17,17-dimethyl-8,14-dioxo-15-oxa-4-thia-9,21,30,31-tetrazahexacyclo[23.3.1.1^2,5.1^9,13.0^19,27.0^21,26]hentriaconta-1 (28),2,5 (31), 19,25 (29),26-hexaen-7-yl]-2-(4-pyridyl)cyclopropanecarboxamide] |
| 7.94 | 8.60 | 9.10 | > 9.22 | 8.80 | > 9.22 | CO[C@@H](C)c1ncc(N2CCN(C)CC2)cc1-c1c2c3cc(cc4c3n1CCC4)-c1csc(n1)C[C@H](NC(=O)[C@H]1C[C@@H]1c1ccccc1F)C(=O)N1CCC[C@H](N1)C(=O)OCC(C)(C)C2 [Example 29, (1S,2S)-2-(2-fluorophenyl)-N-[(7S,13S)-(20M)-20-[2-[(1S)-1-methoxyethyl]-5-(4-methylpiperazin-1-yl)-3-pyridyl]-17,17-dimethyl-8,14-dioxo-15-oxa-4-thia-9,21,30,31-tetrazahexacyclo[23.3.1.1^2,5.1^9,13.0^19,27.0^21,26]hentriaconta-1 (28),2,5 (31),19,25 (29),26-hexaen-7-yl]cyclopropanecarboxamide] |
| 7.66 | 8.51 | > 9.22 | 8.64 | 7.70 | 8.80 | CO[C@@H](C)c1ncc(N2CCN(C)CC2)cc1-c1c2c3cc(cc4c3n1CC(F)(F)C4)-c1csc(n1)C[C@H](NC(=O)[C@H]1C[C@@H]1C(F)F)C(=O)N1CCC[C@H](N1)C(=O)OCC(C)(C)C2 (atropisomer, axis not shown; (M)) [Example 31] |
| 7.65 | 8.15 | 8.82 | 8.92 | 8.03 | 8.89 | CO[C@@H](C)c1ncc(N2CCN(C)CC2)cc1-c1c2c3cc(cc4c3n1CCC4)-c1csc(n1)C[C@H](NC(=O)[C@@H]1C[C@H]1c1ccccc1F)C(=O)N1CCC[C@H](N1)C(=O)OCC(C)(C)C2 [Example 28, (1R,2R)-2-(2-fluorophenyl)-N-[(7S,13S)-(20M)-20-[2-[(1S)-1-methoxyethyl]-5-(4-methylpiperazin-1-yl)-3-pyridyl]-17,17-dimethyl-8,14-dioxo-15-oxa-4-thia-9,21,30,31-tetrazahexacyclo[23.3.1.1^2,5.1^9,13.0^19,27.0^21,26]hentriaconta-1 (28),2,5 (31),19,25 (29),26-hexaen-7-yl]cyclopropanecarboxamide] |
| 7.92 | 8.44 | 9.05 | 9.15 | 8.42 | 9.52 | CO[C@@H](C)c1ncc(N2CCOCC2)cc1-c1c2c3cc(cc4c3n1CCO4)-c1csc(n1)C[C@H](NC(=O)[C@H]1C[C@@H]1c1ccccc1)C(=O)N1CCC[C@H](N1)C(=O)OCC(C)(C)C2 (atropisomer, axis not shown; (M)) [Example 43, (1S,2S)-N-[(7S,13S)-(20M)-20-[2-[(1S)-1-methoxyethyl]-5-morpholino-3-pyridyl]-17,17-dimethyl-8,14-dioxo-15,24-dioxa-4-thia-9,21,30,31-tetrazahexacyclo[23.3.1.1^2,5.1^9,13.0^19,27.0^21,26]hentriaconta-1 (29),2,5 (31), 19,25,27-hexaen-7-yl]-2-phenyl-cyclopropanecarboxamide] |
| 6.12 | 7.40 | 8.15 | 8.30 | 7.30 | 8.52 | CO[C@@H](C)c1ncc(N2CCOCC2)cc1-c1c2c3cc(cc4c3n1CCCC4)-c1csc(n1)C[C@H](NC(=O)[C@H]1[C@H](C)[C@@H]1C)C(=O)N1CCC[C@H](N1)C(=O)OCC(C)(C)C2 [Example 126, (1r,2R,3S)-N-[(7S,13S)-(20M)-20-[2-[(1S)-1-methoxyethyl]-5-morpholino-3-pyridyl]-17,17-dimethyl-8,14-dioxo-15-oxa-4-thia-9,21,31,32-tetrazahexacyclo[24.3.1.1^2,5.1^9,13.0^19,28.0^19,28.0^21,27]dotriaconta-1 (29),2,5 (32),19,26 (30),27-hexaen-7-yl]-2,3-dimethyl-cyclopropanecarboxamide] |
| 6.00 | 6.00 | 7.57 | 7.52 | 6.16 | 7.52 | CO[C@@H](C)c1ncc(N2CCN(C)CC2)cc1-c1c2c3cc(cc4c3n1CCCCC4)-c1csc(n1)C[C@H](NC(=O)[C@H]1[C@H](C)[C@@H]1C)C(=O)N1CCC[C@H](N1)C(=O)OCC(C)(C)C2 [Example 127, (1r,2R,3S)-N-[(7S,13S)-(20M)-20-[2-[(1S)-1-methoxyethyl]-5-(4-methylpiperazin-1-yl)-3-pyridyl]-17,17-dimethyl-8,14-dioxo-15-oxa-4-thia-9,21,32,33-tetrazahexacyclo[25.3.1.1^2,5.1^9,13.0^19,29.0^21,28]tritriaconta-1 (30),2,5 (33),19,27 (31),28-hexaen-7-yl]-2,3-dimethyl-cyclopropanecarboxamide] |
| 7.01 | 7.61 | 7.75 | 8.74 | 7.55 | 8.26 | CO[C@@H](C)c1ncc(N2CCN(C)CC2)cc1-c1c2c3cc(cc4c3n1CCC4)-c1csc(n1)C[C@H](NC(=O)[C@H]1CC[C@H](c3nnnn3C)CC1)C(=O)N1CCC[C@H](N1)C(=O)OCC(C)(C)C2 (atropisomer, axis not shown; (M)) [Example 70, trans-N-[(7S,13S)-(20M)-20-[2-[(1S)-1-methoxyethyl]-5-(4-methylpiperazin-1-yl)-3-pyridyl]-17,17-dimethyl-8,14-dioxo-15-oxa-4-thia-9,21,30,31-tetrazahexacyclo[23.3.1.1^2,5.1^9,13.0^19,27.0^21,26]hentriaconta-1 (29),2,5 (31),19,25,27-hexaen-7-yl]-4-(1-methyltetrazol-5-yl)cyclohexanecarboxamide] |

| Compound | pIC50 [1] | pIC50 [2] | pIC50 [3] | pIC50 [4] | pIC50 [5] | pIC50 [6] |
| --- | --- | --- | --- | --- | --- | --- |
| CO[C@@H](C)c1ncc(N2CCOCC2)cc1-c1c2c3cc(cc4c3n1C(C)(C)CC4)-c1csc(n1)C[C@H](NC(=O)[C@H]1C[C@@H]1C)C(=O)N1CCC[C@H](N1)C(=O)OCC(C)(C)C2 [Example 125, (1S,2S)-N-[(7S,13S)-(20M)-20-[2-[(1S)-1-methoxyethyl]-5-morpholino-3-pyridyl]-17,17,22,22-tetramethyl-8,14-dioxo-15-oxa-4-thia-9,21,30,31-tetrazahexacyclo[23.3.1.1^2,5.1^9,13.0^19,27.0^21,26]hentriaconta-1 (29),2,5 (31),19,25,27-hexaen-7-yl]-2-methyl-cyclopropanecarboxamide] | 5.33 | 5.96 | 6.68 | 6.52 | 6.32 | 7.08 |
